What was measured:
STAT6 = target: T1, STAT6 (Homo sapiens, UniProt P42226); assay: STAT6 Reporter Luciferase Assay (IL-13 stimulated HaCaT keratinocyte NanoLuc reporter cells); type: cell-based; settings: IL-13 stimulated HaCaT STAT6 NanoLuc reporter cells; read-out: Reporter EC50
T1 construct: stably transfected HaCaT keratinocyte cell line, which expresses NanoLuc luciferase reporter gene under the transcriptional control of the STAT6 responsive promoter; endogenous in cells; host or cells: HaCaT keratinocyte reporter cell line (stably transfected with a NanoLuc reporter)
T1 sequence (P42226 1-847): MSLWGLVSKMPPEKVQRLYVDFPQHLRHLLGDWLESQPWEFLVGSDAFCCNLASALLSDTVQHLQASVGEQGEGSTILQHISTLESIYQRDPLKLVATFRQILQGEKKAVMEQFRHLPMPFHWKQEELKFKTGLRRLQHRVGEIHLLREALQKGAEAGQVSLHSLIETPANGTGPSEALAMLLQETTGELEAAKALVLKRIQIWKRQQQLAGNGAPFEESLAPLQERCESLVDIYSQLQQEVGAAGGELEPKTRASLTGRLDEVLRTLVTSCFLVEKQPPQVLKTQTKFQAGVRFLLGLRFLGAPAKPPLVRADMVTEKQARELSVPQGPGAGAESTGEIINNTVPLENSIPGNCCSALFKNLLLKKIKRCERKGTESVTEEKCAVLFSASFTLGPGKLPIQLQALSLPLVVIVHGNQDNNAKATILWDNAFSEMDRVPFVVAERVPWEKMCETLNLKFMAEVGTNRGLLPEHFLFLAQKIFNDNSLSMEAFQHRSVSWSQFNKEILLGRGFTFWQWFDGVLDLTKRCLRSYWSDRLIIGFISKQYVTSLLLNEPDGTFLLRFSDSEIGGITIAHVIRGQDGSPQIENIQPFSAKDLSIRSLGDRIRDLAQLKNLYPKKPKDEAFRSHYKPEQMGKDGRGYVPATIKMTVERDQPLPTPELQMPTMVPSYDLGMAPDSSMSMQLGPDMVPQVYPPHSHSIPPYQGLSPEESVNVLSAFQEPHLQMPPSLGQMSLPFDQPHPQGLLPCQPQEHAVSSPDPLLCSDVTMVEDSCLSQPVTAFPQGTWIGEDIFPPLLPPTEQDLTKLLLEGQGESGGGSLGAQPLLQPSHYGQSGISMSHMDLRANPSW
Outline: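 Compounds were tested as 11-point, 4-fold series in duplicate, applied for 2 h at 37 °C in low-serum (2% FBS) DMEM. The cells were a stable HaCaT line with NanoLuc under a STAT6-responsive IL-13Ra2 promoter. After 4 h with 0.12 nM IL-13, Nano-Glo luminescence was measured.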

[1] = tested on: CCL17 secretion in peripheral human whole blood; assay: Human Whole Blood (HWB) CCL17 TR-FRET Assay (IL-13 stimulated CCL17 secretion); type: cell-based; settings: Homo sapiens, 48 h, human whole blood, IL-13 stimulated
Outline: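 TR-FRET sandwich immunoassay (665/615 nm ratio) read CCL17 in serum from heparinized whole blood after 16 h RT detection. Blood was exposed to compound for 2 h at 37 °C, then to 10 ng/mL IL-13 (final) for 48 h. IC50 from 11-point, 3-fold titrations in duplicate.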

| EC50 (STAT6) [nM] | IC50 [1] [nM] | SMILES |
| --- | --- | --- |
| 1 | 9 | CC(C)n1nc(C(=O)NCc2ccc(-c3ncc[nH]3)cc2)c2c1[C@@H](C)CN(c1ccc(C(=O)N(C)C)cn1)C2 [Example 343, (S)-N-(4-(1H-imidazol-2-yl)benzyl)-5-(5-(dimethylcarbamoyl)pyridin-2-yl)-1-isopropyl-7-methyl-4,5,6,7-tetrahydro-1H-pyrazolo[4,3-c]pyridine-3-carboxamide] |
| 2 | 13 | CC(C)n1nc(C(=O)NCc2ccc(NC(=O)N(C)C)cc2)c2c1[C@@H](C)CN(c1ncc(C(=O)N3Cc4cccnc4C3)cn1)C2 [Example 346, (S)-5-(5-(6,7-dihydro-5H-pyrrolo[3,4-b]pyridine-6-carbonyl)pyrimidin-2-yl)-N-(4-(3,3-dimethylureido)benzyl)-1-isopropyl-7-methyl-4,5,6,7-tetrahydro-1H-pyrazolo[4,3-c]pyridine-3-carboxamide] |
| 2 | 11 | CC(C)n1nc(C(=O)NCc2ccc(NC(=O)N(C)C)nc2)c2c1[C@@H](C)CN(c1ccc(C(=O)N(C)C)cn1)C2 [Example 349, (S)-5-(5-(dimethylcarbamoyl)pyridin-2-yl)-N-((6-(3,3-dimethylureido)pyridin-3-yl)methyl)-1-isopropyl-7-methyl-4,5,6,7-tetrahydro-1H-pyrazolo[4,3-c]pyridine-3-carboxamide] |
| 2 | 6 | CC(C)n1nc(C(=O)NCc2ccc(NC(=O)N(C)C)cn2)c2c1[C@@H](C)CN(c1ccc(C(=O)N(C)C)cn1)C2 [Example 350, (S)-5-(5-(dimethylcarbamoyl)pyridin-2-yl)-N-((5-(3,3-dimethylureido)pyridin-2-yl)methyl)-1-isopropyl-7-methyl-4,5,6,7-tetrahydro-1H-pyrazolo[4,3-c]pyridine-3-carboxamide] |
| 15 | 1960 | COc1nccc2c1CN(C(=O)c1ccc(N3CCc4c(c(C(=O)NCc5ccc(NC(=O)N(C)C)cc5)nn4C(C)C)C3)nc1)CC2 [Example 375, N-(4-(3,3-dimethylureido)benzyl)-1-isopropyl-5-(5-(8-methoxy-1,2,3,4-tetrahydro-2,7-naphthyridine-2-carbonyl)pyridin-2-yl)-4,5,6,7-tetrahydro-1H-pyrazolo[4,3-c]pyridine-3-carboxamide] |
| 15 | 1070 | COc1ccc2c(n1)CCN(C(=O)c1ccc(N3CCc4c(c(C(=O)NCc5ccc(NC(=O)N(C)C)cc5)nn4C(C)C)C3)nc1)C2 [Example 384, N-(4-(3,3-dimethylureido)benzyl)-1-isopropyl-5-(5-(2-methoxy-5,6,7,8-tetrahydro-1,6-naphthyridine-6-carbonyl)pyridin-2-yl)-4,5,6,7-tetrahydro-1H-pyrazolo[4,3-c]pyridine-3-carboxamide] |
| 8 | 29 | CCn1nc(C(=O)NCc2ccc(C(=O)NC)cc2)c2c1[C@@H](C)CN(c1ccc(N3CCCC3=O)cn1)C2 [Example 388, (S)-1-ethyl-7-methyl-N-(4-(methylcarbamoyl)benzyl)-5-(5-(2-oxopyrrolidin-1-yl)pyridin-2-yl)-4,5,6,7-tetrahydro-1H-pyrazolo[4,3-c]pyridine-3-carboxamide] |
| 6 | 17 | CCn1nc(C(=O)NCc2ccc(C(N)=O)cc2)c2c1[C@@H](C)CN(c1ccc(N3CCCC3=O)cn1)C2 [Example 389, (S)-N-(4-carbamoylbenzyl)-1-ethyl-7-methyl-5-(5-(2-oxopyrrolidin-1-yl)pyridin-2-yl)-4,5,6,7-tetrahydro-1H-pyrazolo[4,3-c]pyridine-3-carboxamide] |
| 1 | 6 | CC(C)n1nc(C(=O)NCc2ccc(C(N)=O)cc2)c2c1[C@@H](C)CN(c1ccc(C(=O)N3Cc4cccnc4C3)cn1)C2 [Example 395, (S)—N-(4-Carbamoylbenzyl)-5-(5-(6,7-dihydro-5H-pyrrolo[3,4-b]pyridine-6-carbonyl)pyridin-2-yl)-1-isopropyl-7-methyl-4,5,6,7-tetrahydro-1H-pyrazolo[4,3-c]pyridine-3-carboxamide] |
| 1 | 15 | CNC(=O)c1ccc(CNC(=O)c2nn(C(C)C)c3c2CN(c2ccc(C(=O)N4Cc5cccnc5C4)cn2)C[C@@H]3C)cc1 [Example 396, (S)-5-(5-(6,7-dihydro-5H-pyrrolo[3,4-b]pyridine-6-carbonyl)pyridin-2-yl)-1-isopropyl-7-methyl-N-(4-(methylcarbamoyl)benzyl)-4,5,6,7-tetrahydro-1H-pyrazolo[4,3-c]pyridine-3-carboxamide] |
| 1 | 9 | CCn1nc(C(=O)NCc2ccc(-c3nc(C)c[nH]3)cc2)c2c1[C@@H](C)CN(c1ncc(C(=O)N(C)C)cn1)C2 [Example 397, (S)-5-(5-(dimethylcarbamoyl)pyrimidin-2-yl)-1-ethyl-7-methyl-N-(4-(4-methyl-1H-imidazol-2-yl)benzyl)-4,5,6,7-tetrahydro-1H-pyrazolo[4,3-c]pyridine-3-carboxamide] |
| 0.3 | 7 | CCn1nc(C(=O)NCc2ccc(NC(=O)N3CCN(C)CC3)cc2)c2c1[C@@H](C)CN(c1ccc(C(=O)N(C)C)cc1)C2 [Example 398, (S)-5-(4-(dimethylcarbamoyl)phenyl)-1-ethyl-7-methyl-N-(4-(4-methylpiperazine-1-carboxamido)benzyl)-4,5,6,7-tetrahydro-1H-pyrazolo[4,3-c]pyridine-3-carboxamide] |
| 1040 | 2570 | CN(C)C(=O)Nc1ccc(CNC(=O)c2nn(C)c3c2CN(c2ccc(C(=O)N(C)C)cn2)C2(CC2)C3)cc1 [Example 400, 5′-(5-(dimethylcarbamoyl)pyridin-2-yl)-N-(4-(3,3-dimethylureido)benzyl)-1′-methyl-1′,4′,5′,7′-tetrahydrospiro[cyclopropane-1,6′-pyrazolo[4,3-c]pyridine]-3′-carboxamide] |
| 10 | 100 | COc1ccnc2c1CCN(C(=O)c1ccc(N3CCc4c(c(C(=O)NCc5ccc(NC(=O)N(C)C)cc5)nn4C(C)C)C3)nc1)C2 [Example 407, N-(4-(3,3-dimethylureido)benzyl)-1-isopropyl-5-(5-(4-methoxy-5,6,7,8-tetrahydro-1,7-naphthyridine-7-carbonyl)pyridin-2-yl)-4,5,6,7-tetrahydro-1H-pyrazolo[4,3-c]pyridine-3-carboxamide] |
| 17 | 125 | CC(C)n1nc(C(=O)NCc2ccc(NC(=O)N(C)C)cc2)c2c1CCN(c1ccc(C(=O)N3CCc4c(ncn4C4CC4)C3)cn1)C2 [Example 420, 5-(5-(1-cyclopropyl-4,5,6,7-tetrahydro-1H-imidazo[4,5-c]pyridine-5-carbonyl)pyridin-2-yl)-N-(4-(3,3-dimethylureido)benzyl)-1-isopropyl-4,5,6,7-tetrahydro-1H-pyrazolo[4,3-c]pyridine-3-carboxamide] |
| 333 | 1410 | CC(C)n1nc(C(=O)NCc2ccc(NC(=O)N(C)C)cc2)c2c1CCN(c1ccc(CC(N)=O)cn1)C2 [Example 430, 5-(5-(2-amino-2-oxoethyl)pyridin-2-yl)-N-(4-(3,3-dimethylureido)benzyl)-1-isopropyl-4,5,6,7-tetrahydro-1H-pyrazolo[4,3-c]pyridine-3-carboxamide] |
| 12 | 89 | CC(C)n1nc(C(=O)NCc2ccc(NC(=O)N(C)C)cc2)c2c1CCN(c1ccc(C(=O)N3Cc4cccc(C(=O)N(C)C)c4C3)cn1)C2 [Example 431, 5-(5-(4-(dimethylcarbamoyl)isoindoline-2-carbonyl)pyridin-2-yl)-N-(4-(3,3-dimethylureido)benzyl)-1-isopropyl-4,5,6,7-tetrahydro-1H-pyrazolo[4,3-c]pyridine-3-carboxamide] |
| 45 | 1050 | CC(C)n1ncc2c1CN(C(=O)c1ccc(N3CCc4c(c(C(=O)NCc5ccc(NC(=O)N(C)C)cc5)nn4C(C)C)C3)nc1)CC2 [Example 437, N-(4-(3,3-dimethylureido)benzyl)-1-isopropyl-5-(5-(1-isopropyl-4,5,6,7-tetrahydro-1H-pyrazolo[3,4-c]pyridine-6-carbonyl)pyridin-2-yl)-4,5,6,7-tetrahydro-1H-pyrazolo[4,3-c]pyridine-3-carboxamide] |

From patent US20250320213A1, “Nitrogen-Containing Heterocyclic Compounds” (Pfizer Inc., priority 2024, published 2025)
